Where “and” joins values, the source holds several entries; their conditions need not be identical. Equal entries are not always repeated.
System: BDF1 mice, Adenocarcinoma 755 s.c., tumor weight T/C
Assay: NCI In Vivo Anticancer Drug Screen. Data for tumor model Adenocarcinoma 755 (subcutaneous) in B6D2F1 (BDF1) mice
Settings: endpoint: mean tumor weight, higher = larger tumour
Method: The antitumor activity of compounds was measured in mice bearing transplantable tumors. Survival or tumor size were measured and the results are expressed as the measurement made in the treated group (T) divided by the measurement made in the vehicle treated control group (C). The tumor model used in this assay is Adenocarcinoma 755 (subcutaneous) in B6D2F1 (BDF1) mice

[1] = dose: 15.0 mg/kg/injection, schedule: Q01DX011 (ip), vehicle: methylcellulose (MC)
[2] = dose: 62.0 mg/kg/injection, schedule: Q01DX011 (ip), vehicle: methylcellulose (MC)
[3] = dose: 125.0 mg/kg/injection, schedule: Q01DX011 (ip), vehicle: methylcellulose (MC)
[4] = dose: 600.0 mg/kg/injection, schedule: Q01DX011 (ip), vehicle: carboxymethylcellulose (CMC)
[5] = dose: 31.0 mg/kg/injection, schedule: Q01DX011 (ip), vehicle: methylcellulose (MC)
[6] = dose: 250.0 mg/kg/injection, schedule: Q01DX011 (ip), vehicle: methylcellulose (MC)
[7] = dose: 30.0 mg/kg/injection, schedule: Q01DX011 (ip), vehicle: saline
[8] = dose: 60.0 mg/kg/injection, schedule: Q01DX011 (ip), vehicle: saline
[9] = dose: 120.0 mg/kg/injection, schedule: Q01DX011 (ip), vehicle: saline
[10] = dose: 75.0 mg/kg/injection, schedule: Q01DX011 (ip), vehicle: methylcellulose (MC)
[11] = dose: 40.0 mg/kg/injection, schedule: Q01DX011 (ip), vehicle: carboxymethylcellulose (CMC)
[12] = dose: 80.0 mg/kg/injection, schedule: Q01DX011 (ip), vehicle: carboxymethylcellulose (CMC)
[13] = dose: 160.0 mg/kg/injection, schedule: Q01DX011 (ip), vehicle: carboxymethylcellulose (CMC)

CCc1c(Cl)nc(N)nc1Nc1ccccc1Cl
T/C [1]: 105 % of control | T/C [2]: 103 % of control | T/C [3]: 101 % of control

CC(=O)NC1=C(N2CC2)C(=O)C(NC(C)=O)=C(N2CC2)C1=O
T/C (dose: 0.02 mg/kg/injection, schedule: Q01DX011 (ip), vehicle: carboxymethylcellulose (CMC)): 91 % of control | T/C (dose: 0.02 mg/kg/injection, schedule: Q01DX011 (ip), vehicle: methylcellulose (MC)): 71 % of control | T/C (dose: 0.03 mg/kg/injection, schedule: Q01DX011 (ip), vehicle: carboxymethylcellulose (CMC)): 65 % of control | T/C (dose: 0.05 mg/kg/injection, schedule: Q01DX011 (ip), vehicle: methylcellulose (MC)): 69 % of control | T/C (dose: 0.06 mg/kg/injection, schedule: Q01DX011 (ip), vehicle: carboxymethylcellulose (CMC)): 51 % of control | T/C (dose: 0.1 mg/kg/injection, schedule: Q01DX011 (ip), vehicle: methylcellulose (MC)): 50 % of control | T/C (dose: 0.12 mg/kg/injection, schedule: Q01DX011 (ip), vehicle: carboxymethylcellulose (CMC)): 21 % of control

O=C(O)CCC(=O)Nc1nccs1
T/C (dose: 150.0 mg/kg/injection, schedule: Q01DX011 (ip), vehicle: carboxymethylcellulose (CMC)): 71 % of control | T/C (dose: 300.0 mg/kg/injection, schedule: Q01DX011 (ip), vehicle: carboxymethylcellulose (CMC)): 83 % of control | T/C [4]: 63 % of control

N#Cc1ccc(Nc2cc(Cl)nc(N)n2)cc1
T/C [1]: 89 % of control | T/C [5]: 87 % of control | T/C [2]: 50 % of control | T/C [3]: 97 % of control | T/C [6]: 65 % of control

O=S=Nc1ccccc1
T/C (dose: 351.0 mg/kg/injection, schedule: Q01DX011 (ip), vehicle: carboxymethylcellulose (CMC)): 64 % of control

Cn1c(N)nc2c(ncn2C2OC(CO)C(O)C2O)c1=O (stereo not drawn)
T/C [7]: 101 % of control | T/C [8]: 94 % of control | T/C [9]: 116 % of control

Nc1nc2nc(/N=N/SCCC(=O)O)[nH]c2c(=O)[nH]1
T/C (dose: 37.5 mg/kg/injection, schedule: Q01DX011 (ip), vehicle: methylcellulose (MC)): 54 % of control | T/C [10]: 45 % of control

S=c1nc[nH]c2c1ncn2C1CCCCCC1
T/C (dose: 125.0 mg/kg/injection, schedule: Q01DX011 (ip), vehicle: carboxymethylcellulose (CMC)): 65 % of control | T/C (dose: 250.0 mg/kg/injection, schedule: Q01DX011 (ip), vehicle: carboxymethylcellulose (CMC)): 88 % of control | T/C (dose: 500.0 mg/kg/injection, schedule: Q01DX011 (ip), vehicle: carboxymethylcellulose (CMC)): 87 % of control

CCCCN(C)N=Nc1ccc(CCC(=O)OCC)cc1
T/C (dose: 62.5 mg/kg/injection, schedule: Q01DX011 (ip), vehicle: saline): 95 % of control | T/C (dose: 125.0 mg/kg/injection, schedule: Q01DX011 (ip), vehicle: saline): 38 % of control | T/C (dose: 250.0 mg/kg/injection, schedule: Q01DX011 (ip), vehicle: saline): 80 % of control

CC(C)CCS(=O)(=O)OCCCCOS(=O)(=O)CCC(C)C
T/C [10]: 67 % of control | T/C (dose: 100.0 mg/kg/injection, schedule: Q01DX011 (ip), vehicle: methylcellulose (MC)): 34 % of control | T/C (dose: 150.0 mg/kg/injection, schedule: Q01DX011 (ip), vehicle: methylcellulose (MC)): 89 % of control | T/C (dose: 200.0 mg/kg/injection, schedule: Q01DX011 (ip), vehicle: methylcellulose (MC)): 5 % of control | T/C (dose: 300.0 mg/kg/injection, schedule: Q01DX011 (ip), vehicle: methylcellulose (MC)): 60 % of control | T/C (dose: 400.0 mg/kg/injection, schedule: Q01DX011 (ip), vehicle: carboxymethylcellulose (CMC)): 56 % of control | T/C (dose: 400.0 mg/kg/injection, schedule: Q01DX011 (ip), vehicle: methylcellulose (MC)): 20 % of control | T/C [4]: 33 % of control | T/C (dose: 600.0 mg/kg/injection, schedule: Q01DX011 (ip), vehicle: methylcellulose (MC)): 75 % of control

CC1CN1P(=O)(N1CCCCC1)N1CC1C (stereo not drawn)
T/C (dose: 3.0 mg/kg/injection, schedule: Q01DX011 (ip), vehicle: saline): 107 % of control and 86 % of control | T/C (dose: 6.0 mg/kg/injection, schedule: Q01DX011 (ip), vehicle: saline): 57 % of control and 71 % of control | T/C (dose: 48.0 mg/kg/injection, schedule: Q01DX011 (ip), vehicle: saline): 11 % of control

O=C(CCBr)N1CCC(CCC2CCN(C(=O)CCBr)CC2)CC1
T/C (dose: 25.0 mg/kg/injection, schedule: Q01DX011 (ip), vehicle: methylcellulose (MC)): 94 % of control | T/C [10]: 68 % of control | T/C (dose: 225.0 mg/kg/injection, schedule: Q01DX011 (ip), vehicle: methylcellulose (MC)): 43 % of control

Cn1c(=O)c2[nH]c(/N=N/N3CCN(CCO)CC3)nc2n(C)c1=O
T/C (dose: 75.0 mg/kg/injection, schedule: Q01DX011 (ip), vehicle: other): 119 % of control | T/C (dose: 225.0 mg/kg/injection, schedule: Q01DX011 (ip), vehicle: other): 92 % of control

CC(=O)OCC(=O)C1(O)CCC2C3CCC4=CC(=O)CCC4(C)C34OC4CC21C (stereo not drawn)
T/C (dose: 25.0 mg/kg/injection, schedule: Q01DX011 (sc), vehicle: steriod suspending solution): 87 % of control | T/C (dose: 200.0 mg/kg/injection, schedule: Q01DX011 (sc), vehicle: steriod suspending solution): 44 % of control | T/C (dose: 450.0 mg/kg/injection, schedule: Q01DX011 (sc), vehicle: steriod suspending solution): 17 % of control

c1cc[nH]c1
T/C [11]: 101 % of control | T/C [12]: 68 % of control | T/C [13]: 113 % of control

OCCNc1ncnc2c1ncn2C1CCCO1 (stereo not drawn)
T/C (dose: 50.0 mg/kg/injection, schedule: Q01DX011 (ip), vehicle: saline): 174 % of control | T/C (dose: 100.0 mg/kg/injection, schedule: Q01DX011 (ip), vehicle: saline): 96 % of control | T/C (dose: 200.0 mg/kg/injection, schedule: Q01DX011 (ip), vehicle: saline): 48 % of control

c1ccc2[nH]cnc2c1
T/C (dose: 38.5 mg/kg/injection, schedule: Q01DX011 (ip), vehicle: carboxymethylcellulose (CMC)): 74 % of control | T/C [11]: 93 % of control | T/C (dose: 43.5 mg/kg/injection, schedule: Q01DX011 (ip), vehicle: carboxymethylcellulose (CMC)): 116 % of control | T/C (dose: 62.5 mg/kg/injection, schedule: Q01DX011 (ip), vehicle: methylcellulose (MC)): 60 % of control | T/C (dose: 77.0 mg/kg/injection, schedule: Q01DX011 (ip), vehicle: carboxymethylcellulose (CMC)): 62 % of control | T/C [12]: 72 % of control | T/C (dose: 87.0 mg/kg/injection, schedule: Q01DX011 (ip), vehicle: carboxymethylcellulose (CMC)): 110 % of control | T/C (dose: 123.2 mg/kg/injection, schedule: Q01DX011 (ip), vehicle: carboxymethylcellulose (CMC)): 41 % of control and 57 % of control | T/C [3]: 88 % of control | T/C [13]: 105 % of control | T/C (dose: 174.0 mg/kg/injection, schedule: Q01DX011 (ip), vehicle: carboxymethylcellulose (CMC)): 101 % of control | T/C (dose: 205.33 mg/kg/injection, schedule: Q01DX011 (ip), vehicle: carboxymethylcellulose (CMC)): 77 % of control and 82 % of control | T/C [6]: 118 % of control | T/C (dose: 320.0 mg/kg/injection, schedule: Q01DX011 (ip), vehicle: carboxymethylcellulose (CMC)): 123 % of control | T/C (dose: 348.0 mg/kg/injection, schedule: Q01DX011 (ip), vehicle: carboxymethylcellulose (CMC)): 76 % of control

CCCCN=NNc1nc[nH]c1C(N)=O
T/C (dose: 16.0 mg/kg/injection, schedule: Q01DX011 (ip), vehicle: methylcellulose (MC)): 124 % of control | T/C [5]: 75 % of control | T/C [2]: 79 % of control

OCC1OC(n2cnc3c(I)ncnc32)C(O)C1O (stereo not drawn)
T/C [7]: 73 % of control | T/C [8]: 73 % of control | T/C [9]: 49 % of control | T/C (dose: 240.0 mg/kg/injection, schedule: Q01DX011 (ip), vehicle: saline): 29 % of control

From PubChem BioAssay AID180 (DTP/NCI, 2004)
